Measured values: US5395947A, “Platinum(II) complex and processes for preparing the same” (Sunkyong Industries, Ltd., priority 1991, dated 1995)

Tests used:
[1] = system: murine leukemia L1210 cells; assay: Growth inhibition test on cultured murine leukemia L1210 cells; assay type: cell-based; conditions: 48 hours, 37° C., Trypan blue viability
Outline: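 Read-out is Trypan blue (0.17%) viability versus compound-free controls. Cells, 1×10^5, were cultured 48 h at 37° C under 5% CO2 in RPMI 1640/10% FCS containing various compound concentrations.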

[2] = system: murine leukemia L1210; assay: Antitumor activity test on murine leukemia L1210 in vivo; set-up: species or system male BDF1 mice; conditions: days 1, 5, 9
Outline: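 Male BDF1 mice (6 weeks, 21±3 g; n=7) received 1×10^6 leukemia cells into the peritoneum on day 0, then test compound suspended or dissolved in 0.5% CMC i.p. on days 1, 5, 9. Activity expressed as T/C %, mean survival treated versus 0.5% CMC-injected controls.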

[3] = Test for water solubility; assay type: physicochemical; conditions: water
Excerpt: 3. Test for water solubility
A standard plot of UV absorbance(220 nm) vs. concentration was made; and employed to determine water-solubility.
The mixture was then passed through a 0.45 micron disposable membrane filter before dilution and UV measurement.

[4] = system: ICR mice; assay: Acute toxicity test; assay type: in vivo; set-up: Lethality: unit not given here; conditions: for Lethality: 10080 min
Outline: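 Single i.p. administration to ICR mice (7 weeks old, both sexes, n=6/group); appearance and mortality logged over 7 days, dead animals autopsied for gross pathology.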

## O=C1[O][Pt-2]2([NH2+]CC3OCOC3C[NH2+]2)[O]C(=O)C12CCC2 [Example 20, cis-cyclobutane-1,1-dicarboxylato [(4R,5R)-4,5-bis(aminomethyl)-1,3-dioxolane]platinum (II)]
[1]
  IC50 (concentration required for 50% inhibition of growth): 1.28 µg/mL
[2]; 6.2 mg/kg i.p.
  T/C (%): 122%
[2]; 12.5 mg/kg i.p.
  T/C (%): 187%
[2]; 25 mg/kg i.p.
  T/C (%): 137%
[2]; 50 mg/kg i.p.
  T/C (%): 193%
[2]; 100 mg/kg i.p.
  T/C (%): 271%
[3]
  Solubility in water: 3100 µg/mL
[4]; female, 94 mg/kg i.p.
  Number of dead mice for 7 days: 0/6
  Number of dead mice, 1st day: 0/6
[4]; female, 123 mg/kg i.p.
  Number of dead mice for 7 days: 2/6
  Number of dead mice, 1st day: 0/6
  Number of dead mice, 4th day: 2/6
  Lethality: 33.3
[4]; female, 160 mg/kg i.p.
  Number of dead mice for 7 days: 4/6
  Number of dead mice, 1st day: 0/6
  Number of dead mice, 4th day: 2/6
  Number of dead mice, 5th day: 2/4
  Lethality: 66.7
[4]; female, 208 mg/kg i.p.
  Number of dead mice for 7 days: 6/6
  Number of dead mice, 1st day: 0/6
  Number of dead mice, 3rd day: 1/6
  Number of dead mice, 4th day: 5/5
  Lethality: 100.0
[4]; female, 270 mg/kg i.p.
  Number of dead mice for 7 days: 6/6
  Number of dead mice, 1st day: 0/6
  Number of dead mice, 2nd day: 4/6
  Number of dead mice, 3rd day: 2/2
  Lethality: 100.0
[4]; male, 94 mg/kg i.p.
  Number of dead mice for 7 days: 0/6
  Number of dead mice, 1st day: 0/6
[4]; male, 123 mg/kg i.p.
  Number of dead mice for 7 days: 2/6
  Number of dead mice, 1st day: 1/6
  Number of dead mice, 5th day: 1/5
  Lethality: 33.3
[4]; male, 160 mg/kg i.p.
  Number of dead mice for 7 days: 5/6
  Number of dead mice, 1st day: 0/6
  Number of dead mice, 4th day: 2/6
  Number of dead mice, 5th day: 1/4
  Number of dead mice, 6th day: 2/3
  Lethality: 83.3
[4]; male, 208 mg/kg i.p.
  Number of dead mice for 7 days: 6/6
  Number of dead mice, 1st day: 0/6
  Number of dead mice, 4th day: 6/6
  Lethality: 100.0
[4]; male, 270 mg/kg i.p.
  Number of dead mice for 7 days: 6/6
  Number of dead mice, 1st day: 0/6
  Number of dead mice, 2nd day: 4/6
  Number of dead mice, 3rd day: 2/2
  Lethality: 100.0

## CC1[O][Pt][O]C1=O.NCC1OC2(CCCC2)OC1CN [Example 15, (L-lactato-O,O')[(4R,5R)-4,5-bis(aminomethyl)-1,3-dioxolane-2-spiro-1'-cyclopentane]platinum(II)]
[1]
  IC50 (concentration required for 50% inhibition of growth): 0.33 µg/mL
[2]; 12.5 mg/kg i.p.
  T/C (%): 225%
[2]; 25 mg/kg i.p.
  T/C (%): 243%
[2]; 50 mg/kg i.p.
  T/C (%): 192%
[3]
  Solubility in water: 4900 µg/mL
[4]; female, 41.3 mg/kg i.p.
  Number of dead mice for 7 days: 0/6
  Number of dead mice, 1st day: 0/6
  Lethality: 0.0
[4]; female, 54.9 mg/kg i.p.
  Number of dead mice for 7 days: 3/6
  Number of dead mice, 1st day: 0/6
  Number of dead mice, 3rd day: 1/6
  Number of dead mice, 4th day: 1/5
  Number of dead mice, 5th day: 1/4
  Lethality: 50.0
[4]; female, 71.4 mg/kg i.p.
  Number of dead mice for 7 days: 5/6
  Number of dead mice, 1st day: 0/6
  Number of dead mice, 4th day: 1/6
  Number of dead mice, 5th day: 3/5
  Number of dead mice, 6th day: 1/2
  Lethality: 83.7
[4]; female, 91.8 mg/kg i.p.
  Number of dead mice for 7 days: 6/6
  Number of dead mice, 1st day: 0/6
  Number of dead mice, 2nd day: 1/6
  Number of dead mice, 3rd day: 2/5
  Number of dead mice, 4th day: 2/3
  Number of dead mice, 5th day: 1/1
  Lethality: 100.0
[4]; male, 41.3 mg/kg i.p.
  Number of dead mice for 7 days: 0/6
  Number of dead mice, 1st day: 0/6
  Lethality: 0.0
[4]; male, 54.9 mg/kg i.p.
  Number of dead mice for 7 days: 4/6
  Number of dead mice, 1st day: 0/6
  Number of dead mice, 3rd day: 2/6
  Number of dead mice, 6th day: 2/4
  Lethality: 66.7
[4]; male, 71.4 mg/kg i.p.
  Number of dead mice for 7 days: 5/6
  Number of dead mice, 1st day: 0/6
  Number of dead mice, 4th day: 4/6
  Number of dead mice, 5th day: 1/2
  Lethality: 83.3
[4]; male, 91.8 mg/kg i.p.
  Number of dead mice for 7 days: 6/6
  Number of dead mice, 1st day: 0/6
  Number of dead mice, 2nd day: 2/6
  Number of dead mice, 3rd day: 3/4
  Number of dead mice, 4th day: 1/1
  Lethality: 100.0
